# Source: patent US12576155B2, “Senolytic and antiinflammatory prodrugs and methods of use thereof” (priority 2019, dated 2026)
# Key:
# [1] = test system: senescent mouse fibroblasts induced by ionizing irradiation, oncogene overexpression, or genotoxic stress (etoposide treatment); experiment: Cell viability, oncogene-, etoposide- and irradiation-induced senescent MEFs; format: cell-based; details: oncogene- (Kras), etoposide- and irradiation- (10 Gy) induced senescent MEFs vs non-senescent; increasing doses
# [2] = test system: naturally occurring senescent cells of aged mice; experiment: SSK1 treatment of naturally aged mice (senescent cells, SASP, physical function, RNA-seq); format: in vivo, C57BL/6 mice
# Method: All drugs were mixed in 90% PBS, 5% Tween-80 (P1754, Sigma), and 5% polyethylene glycol (PEG) (81172, Sigma) and administered to mice by intraperitoneal (i.p.) injection. For treating bleomycin-injured young mice, SSK1 (0.5 mg/kg) or vehicle were given consecutive two days every week for five weeks. For old mice (20-month-old), SSK1 (0.5 mg/kg), gemcitabine (0.5 mg/kg) or vehicle were administrated for continued 3 days every two weeks. Gemcitabine was purchased from MCE.
# Cultured cells were washed once with PBS and fixed in β-galactosidase staining fix solution for 15 min at room temperature. Cells were then washed three times with PBS and incubated with β-galactosidase staining solution (Beyotime Biotechnology) for 16-20 hours at 37° C. For 12-well plates, 1 ml of β-galactosidase staining solution was added to each well. The plate was sealed with Parafilm to prevent evaporation of the staining medium. After the overnight incubation, cells were washed with PBS and observed under a bright field microscope. For β-galactosidase staining of frozen sections, the frozen sections were dried at 37° C. for 20-30 min and then fixed in β-galactosidase staining fix solution for 15 min at room temperature. The frozen sections were washed three times with PBS and incubated with β-galactosidase staining solution overnight at 37° C. After completion of β-galactosidase staining, the sections were stained with eosin for 1-2 min, rinsed under running water for 1 min, differentiated in 1% acid alcohol for 10-20 sec, and washed again under running water for 1 min. Sections were dehydrated in increasing concentrations of alcohols and cleared in xylene. Excess xylene was drained and a coverslip was placed over the section. After drying, the sample was observed under a microscope.
# Lung, liver, and kidney frozen sections stained with SA-β-Gal were quantified by ImageJ software (NIH) to measure the SA-β-Gal positive area. The total area was quantified by eosin positive area with ImageJ software (NIH). The relative positive SA-β-Gal positive cells were calculated with the SA-β-Gal positive area divided by the total area. Each mouse was measured with 3-5 regions.
# Mouse liver tissues were fixed in 4% paraformaldehyde (DingGuo, AR-0211) for 24 h at room temperature and dehydrated with graded sucrose solution (20% and 30% respectively 24 h) before embedded in OCT compound (Sakura) for cryosection. The embedded tissues were cut and affixed on slides. Before immunohistochemical staining, the sections were fixed in 4% paraformaldehyde (DingGuo, AR-0211) at room temperature for 15 min and blocked with PBS containing 0.25% Triton X-100 (Sigma-Aldrich, T8787) and 2% normal donkey serum (Jackson ImmunoResearch Laboratories, 017-000-121) at room temperature for 1 h. Samples for immunofluorescence staining were incubated with primary antibody: anti-F4/80 antibody (Abcam, ab6640) at 4° C. overnight, washed three times with PBS and then incubated with appropriate secondary antibodies: Alexa Fluor® 488 AffiniPure Donkey Anti-Rat IgG (H+L) (Jackson ImmunoResearch Laboratories, 712-545-150) for 1.5 h at 37° C. Nuclei were stained with Hoechst 33342 (Sigma-Aldrich, B2261).
# For quantification of F4/80 positive cells, images were randomly taken at 20× magnification at the same exposure using confocal laser endomicroscopy (LSM 710 NLO &DuoScan System) and then analyzed by ImageJ. Each mouse was measured with at least 6-10 regions.
# Total RNA was isolated using the Direct-zol RNA MiniPrep Kit (Zymo Research, R2072). RNA was treated with DNase and converted to cDNA using TransScript First-Strand cDNA Synthesis SuperMix (TransGen Biotech, AT311-03). qPCR was performed using Kapa SYBR® FAST qPCR Kit Master Mix (Kapa Biosystems, KM4101) on a CFX Connect™ Real-Time System or CFX96™ Real-Time System (Bio-Rad). Data were analyzed using the 2^(−ΔΔCt) method. Gapdh was used as a control to normalize the expression of target genes. […]
# [3] = Serum biochemical test and routine blood analysis in old mice (toxicity); format: in vivo
# Method: All drugs were mixed in 90% PBS, 5% Tween-80 (P1754, Sigma), and 5% polyethylene glycol (PEG) (81172, Sigma) and administered to mice by intraperitoneal (i.p.) injection. […] […] Gemcitabine was purchased from MCE.
# For blood routine examination, 50 μl fresh blood was collected from each mouse and mixed with EDTA immediately. The blood samples were analyzed by Celltac Alpha MEK-6400 series hematology analyzers (Nihon Kohden, MEK-6400). For serum biochemical analysis, blood samples were collected, clotted for 2 hours at room temperature or overnight at 4° C., and then centrifuged (1000 g, 10 min) to gain serum. 200 μl serum was aliquot and analyzed of Alanine transaminase (ALT), aspartate transaminase (AST), uric acid (UA) and creatinine (CREA) by Chemistry Analyzer (Mindray, BS-350E).
# [4] = test system: replication-induced senescent mouse embryonic fibroblasts (MEFs) and their non-senescent counterparts; experiment: SSK1 metabolism analysis (release of gemcitabine, LC-MS/MS); format: in vitro ADME; details: 0.5 μM SSK1; senescent vs non-senescent MEFs; FIG. 1A
# Method: To detect the release of gemcitabine from SSK1 in senescent and non-senescent cells, the metabolism analysis was performed as previous reported (Karampelas et al., Mol Pharmaceut 14, 674-685(2017)). Briefly, the senescent and non-senescent cells were incubated with 0.5 μM SSK1 in DMEM medium containing 10% FBS and 1% penicillin-streptomycin for the indicated time. Then the cells slightly washed with water for twice and then harvested. Cold methanol used to extract the compounds and samples were prepared after centrifugation. The concentration of gemcitabine was determined by LC-MS/MS analysis.
# [5] = 20-month-old mice, SSK1 0.5 mg/kg i.p. intermittently for 8 weeks
# [6] = aged mice, SSK1 0.5 mg/kg vs vehicle
# [7] = old female mice, 8 weeks, vs vehicle
smiles,measurement,setting,value
CC(=O)OCC1O[C@@H](Oc2ccc(COC(=O)Nc3ccn([C@@H]4O[C@H](CO)C(O)C4(F)F)c(=O)n3)cc2[N+](=O)[O-])C(OC(C)=O)C(OC(C)=O)[C@H]1OC(C)=O (some centres unmarked) [SSK1],Selective killing of senescent cells (viable cells),[1],"selectively killed by SSK1, while non-senescent cells were largely unaffected"
same,"Elimination of β-gal-positive senescent cells vs vehicle, kidney",[2]; [5],3.5 fold
same,"Elimination of β-gal-positive senescent cells vs vehicle, liver",[2]; [5],5.9 fold
same,"Elimination of β-gal-positive senescent cells vs vehicle, lung",[2]; [5],2 fold
same,"GO pathways related to liver function (oxidation-reduction process, metabolic process, fatty acid beta-oxidation, mitochondrion)",[2]; aged livers vs vehicle,up-regulated
same,"Genes associated with inflammatory response, TNFα signaling via NF-κB, IL6 JAK Stat3 signaling and complement (GSEA)",[2]; aged mice livers and kidneys vs vehicle,down regulated
same,Age-associated signature (GSEA) in aged livers and kidneys,[2]; aged mice vs vehicle,decreased
same,"Expression of senescent markers p16 (in liver) and p21 (in liver and kidney), RT-qPCR",[2]; aged mice vs vehicle,decreased expression
same,"Inflammatory factors IL1α and IL1β in aged liver and IL6 in aged kidneys, RT-qPCR",[2]; aged mice vs vehicle,decreased
same,F4/80 positive macrophages infiltration in livers (immunofluorescence),"[2]; aged mice, SSK1 0.5 mg/kg",could delete macrophages infiltration
same,"Gene signature associated with senescence (GSEA), livers and kidneys",[2]; [6],downregulate
same,"Secretion of SASP factors IL1α, IL6, CXCL1 and TNFα in serum (ELISA)",[2]; [6],decreased secretion
same,"Rotarod, treadmill, and grip strength functions vs other senolytic drugs (fisetin, 17-DMAG, ABT263, dasatinib and quercetin)","[2]; aged mice, FIG. 4J","improved the rotarod, treadmill, and grip strength functions when compared to the other senolytic compounds"
same,Body weight,"[2]; old female mice, 8 weeks",without significant effect on body weight
same,Balance beam crossing time,[2]; [7],decreased
same,Grip strength,[2]; [7],significantly increased
same,Maximal rotarod time,[2]; [7],significantly increased
same,Rearing exploration times,[2]; [7],significantly increased
same,Treadmill distance,[2]; [7],significantly increased
same,"Rotarod, treadmill, and grip strength performance","[2]; old male mice, SSK1 0.5 mg/kg vs vehicle",same results were also observed
same,Liver fibrosis (Masson fibrosis staining),[2]; old mice vs vehicle,attenuate liver fibrosis
same,Rotarod and treadmill performance after vs before treatment,"[2]; old mice, SSK1 0.5 mg/kg",improved over the initial state before treatment
same,Systemic toxicities (serum biochemical test and routine blood analysis),"[3]; aged mice, high concentration (100 mg/kg) and high frequency, 5 weeks, 3 injections a week",no obvious systemic toxicities
same,Apoptosis of β-gal positive epithelial tubular cells in the kidney,[3]; following SSK1 treatment,only a few cells of this tubular cell population was shown to be undergoing apoptosis
same,System toxicity (serum biochemical test and routine blood analysis),"[3]; old mice, 0.5 mg/kg for 8 weeks, FIGS. 7A and B",no obvious system toxicity
same,Metabolism of SSK1 into gemcitabine,[4],specifically cleaved to release cytotoxic gemcitabine in senescent cells but not in non-senescent cells
